Measurements: patent US11524966B1 (Valo Early Discovery, Inc., priority 2017, dated 2022)

Each molecule was assayed against T1, USP25 (USP25-His6, Boston Biochem E-546) (Homo sapiens, UniProt Q9UHP3) (assay: Ubiquitin-Rhodamine 110 Assay for USP25 Activity, Example A-2). Details: Ubiquitin-Rhodamine 110 assay, Example A-2; read-out: USP25 A-2 IC50 range.
T1 construct: His6; purchased Boston Biochem E-546
T1 sequence (Q9UHP3 1-1055): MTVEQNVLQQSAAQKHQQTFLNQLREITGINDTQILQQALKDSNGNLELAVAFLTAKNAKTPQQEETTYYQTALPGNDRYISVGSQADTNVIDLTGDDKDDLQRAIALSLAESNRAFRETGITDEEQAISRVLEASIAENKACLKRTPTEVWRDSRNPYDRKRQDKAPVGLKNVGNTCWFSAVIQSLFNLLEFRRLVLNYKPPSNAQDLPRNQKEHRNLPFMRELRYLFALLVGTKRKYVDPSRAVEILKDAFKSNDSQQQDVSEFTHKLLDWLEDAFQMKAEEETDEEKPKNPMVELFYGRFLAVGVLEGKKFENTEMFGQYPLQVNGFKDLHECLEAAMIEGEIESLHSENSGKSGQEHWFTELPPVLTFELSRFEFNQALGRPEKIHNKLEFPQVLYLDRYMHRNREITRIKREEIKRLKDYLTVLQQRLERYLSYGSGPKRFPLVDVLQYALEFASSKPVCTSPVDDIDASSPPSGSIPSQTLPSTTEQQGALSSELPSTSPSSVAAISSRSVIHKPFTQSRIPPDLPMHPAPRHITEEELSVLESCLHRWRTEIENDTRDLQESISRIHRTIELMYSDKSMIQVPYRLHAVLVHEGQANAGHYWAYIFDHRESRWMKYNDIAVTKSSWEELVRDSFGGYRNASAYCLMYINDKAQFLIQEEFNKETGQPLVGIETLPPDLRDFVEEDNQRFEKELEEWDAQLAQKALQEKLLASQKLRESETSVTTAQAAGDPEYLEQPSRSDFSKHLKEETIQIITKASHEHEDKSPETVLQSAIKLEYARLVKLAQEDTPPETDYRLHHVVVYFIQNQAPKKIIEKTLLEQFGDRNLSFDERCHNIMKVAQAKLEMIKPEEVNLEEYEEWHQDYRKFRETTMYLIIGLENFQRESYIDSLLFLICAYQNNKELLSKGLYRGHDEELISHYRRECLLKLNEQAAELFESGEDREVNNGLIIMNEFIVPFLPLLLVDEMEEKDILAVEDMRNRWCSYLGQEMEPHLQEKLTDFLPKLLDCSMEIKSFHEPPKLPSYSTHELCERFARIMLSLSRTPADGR
Assay type: biochemical
Summary of the method: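 75 pM USP25-His6 was preincubated 30 min with compound (10-point 3-fold series, 25 μM–1.3 nM) in pH 8.0 Tris buffer with BME, BGG and Triton X-100. Then 25 nM Ub-Rh110 (<<Km) was added for 45 min at room temperature, stopped with citric acid, fluorescence read at 485/535 nm, IC50 by 4-parameter fit.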
Cc1ccc2c(N)c(C(=O)N[C@H]3CCc4nc(N5CCNCC5)ccc4C3)sc2n1 (single isomer, unassigned) [Example 23-7] gave an IC50 of 200 to 2000 nM.
Cc1ccc2c(N)c(C(=O)N[C@@H]3CCc4nc(N5CCNCC5)ccc4C3)sc2n1 (single isomer, unassigned) [Example 23-8] was tested, and the IC50 was greater than 2000 nM.
Cc1ccc2c(N)c(C(=O)N[C@H]3CCc4nc(N5CCN[C@@H](C)C5)ccc4C3)sc2n1 (single isomer, unassigned) [Example 23-15] was tested, and the IC50 was 200 to 2000 nM.
Cc1ccc2c(N)c(C(=O)N[C@H]3CCc4nc(N5CCN[C@H](C)C5)ccc4C3)sc2n1 (single isomer, unassigned) [Example 23-16] gave an IC50 of 200 to 2000 nM.
With COC[C@@H]1CN(c2ccc3c(n2)CC[C@H](NC(=O)c2sc4nc(C)ccc4c2N)C3)C[C@@H]1N (single isomer, unassigned) [Example 24-1] the IC50 was greater than 2000 nM.
In the case of COC[C@H]1CN(c2ccc3c(n2)CC[C@H](NC(=O)c2sc4nc(C)ccc4c2N)C3)C[C@H]1N (single isomer, unassigned) [Example 24-2], the IC50 is reported as 200 to 2000 nM.
Work on Cc1ccc2c(N)c(C(=O)N[C@H]3CCc4nc(N5CCNCC5)c(F)cc4C3)sc2n1 (single isomer, unassigned) [Example 30-1] yielded an IC50 of 200 to 2000 nM.
Work on Cc1ccc2c(N)c(C(=O)N[C@@H]3CCc4nc(N5CCNCC5)c(F)cc4C3)sc2n1 (single isomer, unassigned) [Example 30-2] yielded an IC50 greater than 2000 nM.
Cc1ccc2c(N)c(C(=O)N[C@@H]3Cc4ccc(N5CCNCC5)nc4C4(CC4)C3)sc2n1 (single isomer, unassigned) [Example 31-3, 3-amino-6-methyl-N-[(6′S)-2-(piperazin-1-yl)-6′,7′-dihydro-5′H-spiro[cyclopropane-1,8′-quinoline]-6′-yl]thieno[2,3-b]pyridine-2-carboxamide] was tested, and the IC50 was greater than 2000 nM.
Work on Cc1ccc2c(N)c(C(=O)N[C@H]3Cc4ccc(N5CCNCC5)nc4C4(CC4)C3)sc2n1 (single isomer, unassigned) [Example 31-4, 3-amino-6-methyl-N-[(6′R)-2′-(piperazin-1-yl)-6′,7′-dihydro-5′H-spiro[cyclopropane-1,8′-quinoline]-6′-yl]thieno[2,3-b]pyridine-2-carboxamide] yielded an IC50 of 200 to 2000 nM.
Cc1ccc2c(N)c(C(=O)N[C@H]3COc4cc(N5C[C@@H]6CCNC[C@@H]65)ccc4C3)sc2n1 (single isomer, unassigned) [Example 33-3] gave an IC50 of 50 to 200 nM.
In the case of Cc1ccc2c(N)c(C(=O)N[C@H]3COc4cc(N5C[C@H]6CCNC[C@H]65)ccc4C3)sc2n1 (single isomer, unassigned) [Example 33-4], the IC50 is reported as 200 to 2000 nM.
Molecule Cc1cnc2c(N)c(C(=O)N[C@H]3COc4cc(N5CC6CCC(C5)N6)c(F)cc4C3)sc2n1 (single isomer, unassigned) [Example 40] has an IC50 of 50 to 200 nM.
Cc1cnc2c(N)c(C(=O)N[C@@H]3COc4cc(N5CC6CCC(C5)N6)c(F)cc4C3)sc2n1 (single isomer, unassigned) [Example 41] gave an IC50 greater than 2000 nM.
With Cc1nc2sc(C(=O)N[C@H]3CCc4nc(N5CCNCC5)ccc4C3)c(N)c2s1 [Example 23-9] the IC50 was greater than 2000 nM.
Work on Cc1ccc2c(N)c(C(=O)N[C@H]3CCc4nc(N5CC6CC(C5)N6)ccc4C3)sc2n1 [Example 23-10, 3-amino-N-[(6S)-2-{3,6-diazabicyclo[3.1.1]heptan-3-yl}-5,6,7,8-tetrahydroquinolin-6-yl]-6-methylthieno[2,3-b]pyridine-2-carboxamide] yielded an IC50 of 200 to 2000 nM.
Cc1cnc2c(N)c(C(=O)N[C@H]3CCc4nc(N5CC6CC(C5)N6)ccc4C3)sc2n1 [Example 23-11, 7-amino-N-[(6S)-2-{3,6-diazabicyclo[3.1.1]heptan-3-yl}-5,6,7,8-tetrahydroquinolin-6-yl]-3-methylthieno[2,3-b]pyrazine-6-carboxamide] gave an IC50 of 200 to 2000 nM.
With Cc1ccc2c(N)c(C(=O)N[C@H]3CCc4nc(N5CC6CCC(C5)N6)ccc4C3)sc2n1 [Example 23-12, 3-amino-N-[(6S)-2-{3,8-diazabicyclo[3.2.1]octan-3-yl}-5,6,7,8-tetrahydroquinolin-6-yl]-6-methylthieno[2,3-b]pyridine-2-carboxamide] the IC50 was 200 to 2000 nM.
Cc1cnc2c(N)c(C(=O)N[C@H]3CCc4nc(N5CC6CCC(C5)N6)ccc4C3)sc2n1 [Example 23-13, 7-amino-N-{(6S)-2-{3,8-diazabicyclo[3.2.1]octan-3-yl}-5,6,7,8-tetrahydroquinolin-6-yl]-3-methylthieno[2,3-b]pyrazine-6-carboxamide] was tested, and the IC50 was 200 to 2000 nM.
Cc1cc(C)c2c(N)c(C(=O)N[C@H]3CCc4nc(N5CCNCC5)ccc4C3)sc2n1 [Example 23-14, 3-amino-4,6-dimethyl-N-[(6S)-2-(piperazin-1-yl)-5,6,7,8-tetrahydroquinolin-6-yl]thieno[2,3-b]pyridine-2-carboxamide] showed an IC50 of 200 to 2000 nM.
With Cc1ccc2c(N)c(C(=O)N[C@H]3CCc4nc(N5CCNCC5)cc(F)c4C3)sc2n1 [Example 23-17, 3-amino-N-[(6S)-4-fluoro-2-(piperazin-1-yl)-5,6,7,8-tetrahydroquinolin-6-yl]-6-methylthieno[2,3-b]pyridine-2-carboxamide] the IC50 was 200 to 2000 nM.
For Cc1ccc2c(N)c(C(=O)N[C@H]3CCc4nc(N5CC6CCC(C5)N6)cc(F)c4C3)sc2n1 [Example 23-18, N-((6S)-2-(3,8-diazabicyclo[3.2.1]octan-3-yl)-4-fluoro-5,6,7,8-tetrahydroquinolin-6-yl)-3-amino-6-methylthieno[2,3-b]pyridine-2-carboxamide], the IC50 was 200 to 2000 nM.
Work on Cc1ccc2c(N)c(C(=O)N[C@H]3CCc4nc(N5C[C@@H](N)[C@H](C(F)F)C5)ccc4C3)sc2n1 [Example 25, 3-Amino-N-[(6S)-2-[(3S,4R)-3-amino-4-(difluoromethyl)pyrrolidin-1-yl]-5,6,7,8-tetrahydroquinolin-6-yl]-6-methylthieno[2,3-b]pyridine-2-carboxamide] yielded an IC50 of 200 to 2000 nM.
With Cc1ccc2c(N)c(C(=O)N[C@H]3COc4cc(C5(C#N)CCS(=O)(=O)CC5)ccc4C3)sc2n1 [Example 34, 3-amino-N-[(3R)-7-(4-cyano-1,1-dioxo-1λ6-thian-4-yl)-3,4-dihydro-2H-1-benzopyran-3-yl]-6-methylthieno[2,3-b]pyridine-2-carboxamide] the IC50 was 1 to 50 nM.
Molecule Cc1ccc2c(N)c(C(=O)N[C@H]3COc4c(F)c(N5CCNCC5)c(F)c(F)c4C3)sc2n1 [Example 35, 3-amino-6-methyl-N-[(3R)-5,6,8-trifluoro-7-(piperazin-1-yl)-3,4-dihydro-2H-1-benzopyran-3-yl]thieno[2,3-b]pyridine-2-carboxamide] has an IC50 of 50 to 200 nM.
CCc1cnc2sc(C(=O)N[C@H]3COc4cc(N5CCNCC5)ccc4C3)c(N)c2n1 [Example 36, (R)-7-amino-2-ethyl-N-(7-(piperazin-1-yl)chroman-3-yl)thieno[2,3-b]pyrazine-6-carboxamide] showed an IC50 of 200 to 2000 nM.
With CCc1cnc2sc(C(=O)N[C@@H]3COc4cc(N5CCNCC5)ccc4C3)c(N)c2n1 [Example 37, (S)-7-amino-2-ethyl-N-(7-(piperazin-1-yl)chroman-3-yl)thieno[2,3-b]pyrazine-6-carboxamide] the IC50 was greater than 2000 nM.
O=C(N[C@H]1COc2cc(N3CCNCC3)ccc2C1)c1cnc2c(ccn2C(F)F)c1 [Example 38, (R)-1-(difluoromethyl)-N-(7-(piperazin-1-yl)chroman-3-yl)-1H-pyrrolo[2,3-b]pyridine-5-carboxamide] gave an IC50 greater than 2000 nM.
